From article PMC3759959, “Design, Synthesis and Antiviral Activity Studies of Schizonepetin Derivatives” (International Journal of Molecular Sciences, 2013) come the findings set out here.

pIC50: −log10 of the molar value.

The test system of one data set is HSV-1 virus. The experiment in a line: Anti HSV-1 CPE inhibition assay in Vero cells. The note with it: for pIC50: Human alphaherpesvirus 1, Vero, 72 h, read-out: IC50, antiviral activity against HSV-1 virus; for antiviral activity against HSV-1 (in words): in vitro, CPE inhibition.
The test system of another data set is Vero cells. Briefly: Cytotoxicity by CPE assay in Vero cells. The class given is cell-based. Conditions: 72 h. The procedure: (§1) The cytotoxicity was evaluated by cytopathic effect (CPE) inhibition assay. Vero cells were seeded into 96-well plates. After cells had been incubated for 24 h at 37 °C in 5% CO2, they were exposed to drugs with two-fold serial dilutions. Untreated Vero cells were used as controls. All cultures were incubated again in 5% CO2 at 37 °C for 72 h. The cells were examined microscopically for the cytotoxicity effects. Then TC50 were calculated by the Reed-Muench method.

The next data set concerns MDCK cells. Briefly: Cytotoxicity against MDCK cells by CPE assay. The class given is cell-based. The procedure: as §1
The procedures for Anti-H3N2 studies and cytotoxicity against MDCK cells in vitro by CPE inhibition assay were similar to Anti HSV-1 studies and cytotoxicity against Vero cells.

Another data set relates to influenza virus H3N2. Briefly: Anti-H3N2 CPE inhibition assay in MDCK cells. Conditions: for pIC50: Influenza A virus, H3N2, MDCK, read-out: IC50, antiviral activity against H3N2 virus; for antiviral activity against influenza virus H3N2 (in words): in vitro, CPE inhibition.
[1] abbreviates: cytotoxicity, Vero cells, Reed-Muench method.

As to `Nc1nc2c(ncn2COCCO)c(=O)[nH]1` [Aciclovir, reference compound], in the data set on HSV-1 virus, the pIC50 is 5.31 and the “TI (TC50/IC50), HSV-1 virus” value is on record as over 136.4. Also, the “TC50 (Antiviral activity against HSV-1 virus section)” value with Vero cells (African green monkey) is over 666.0 µM.

Regarding `CO[C@@]12C[C@H](C)CCC1=C(C)C(=O)O2` [M1, (6R,7aR)-7a-Methoxy-3,6-Dimethyl-5,6,7,7a-Tetrahydrobenzofuran-2(4H)-One], the “TC50 (Antiviral activity against H3N2 virus section)” value in the data set with MDCK cells was found to be 298.5 µM. For the same compound, the pIC50 is under 4.94 in the data set on HSV-1 virus and under 4.41 with influenza virus H3N2. Moreover, the “TC50 (Antiviral activity against HSV-1 virus section)” value in the data set on Vero cells (setting [1]) is 366.8 µM.

As for `CCO[C@@]12C[C@H](C)CCC1=C(C)C(=O)O2` [M2, (6R,7aR)-7a-Ethoxy-3,6-Dimethyl-5,6,7,7a-Tetrahydrobenzofuran-2(4H)-One], in the data set with MDCK cells, the “TC50 (Antiviral activity against H3N2 virus section)” value amounted to 139.5 µM. In the data set with HSV-1 virus, the pIC50 is 4.00; the “TI (TC50/IC50), HSV-1 virus” value was 2.5; the “antiviral activity against HSV-1 (in words)” value is recorded as “obvious antiviral activity”. Moreover, the pIC50 in the data set with influenza virus H3N2 is under 4.41. In addition, the “TC50 (Antiviral activity against HSV-1 virus section)” value in the data set on Vero cells (setting [1]) came to 246.7 µM.

For the compound `CC(=O)O[C@@]12C[C@H](C)CCC1=C(C)C(=O)O2` [M4, (6R,7aR)-3,6-Dimethyl-2-oxo-2,4,5,6,7,7a-Hexahydrobenzofuran-7a-Yl Acetate], the “TC50 (Antiviral activity against H3N2 virus section)” value in the data set with MDCK cells came out at 319.2 µM. For the same compound, in the data set on HSV-1 virus, the pIC50 is 4.03; the “TI (TC50/IC50), HSV-1 virus” value was 4.0; the “antiviral activity against HSV-1 (in words)” value is on record as “obvious antiviral activity”. Further, in the data set on influenza virus H3N2, the pIC50 was under 4.41. The “TC50 (Antiviral activity against HSV-1 virus section)” value in the data set with Vero cells (setting [1]) stood at 374.6 µM.

On to `CCC(=O)O[C@@]12C[C@H](C)CCC1=C(C)C(=O)O2` [M5, (6R,7aR)-3,6-Dimethyl-2-oxo-2,4,5,6,7,7a-Hexahydrobenzofuran-7a-yl Propionate], for which the “TC50 (Antiviral activity against H3N2 virus section)” value in the data set with MDCK cells was found to be 39.1 µM. Also, in the data set with HSV-1 virus, the pIC50 was 4.57; the “TI (TC50/IC50), HSV-1 virus” value worked out at 2.5; the “antiviral activity against HSV-1 (in words)” value is reported as “obvious antiviral activity”. For the same compound, in the data set on influenza virus H3N2, the pIC50 is under 4.41. Moreover, the “TC50 (Antiviral activity against HSV-1 virus section)” value in the data set with Vero cells (setting [1]) stood at 66.0 µM.

For `CC1=C2CC[C@@H](C)C[C@]2(OC(=O)c2ccccc2)OC1=O` [M8, (6R,7aS)-3,6-Dimethyl-2-Oxo-2,4,5,6,7,7a-Hexahydrobenzofuran-7a-yl Benzoate], the “TC50 (Antiviral activity against H3N2 virus section)” value in the data set with MDCK cells amounted to 54.2 µM. For the same compound, the values for the pIC50 with HSV-1 virus and in the data set with influenza virus H3N2 were under 4.94 and under 4.41, respectively. Further, in the data set on Vero cells (setting [1]), the “TC50 (Antiviral activity against HSV-1 virus section)” value was determined as 24.8 µM.

Regarding `CC1=C2CC[C@@H](C)C[C@]2(OC(=O)c2ccc([N+](=O)[O-])cc2)OC1=O` [M9, (6R,7aS)-3,6-Dimethyl-2-Oxo-2,4,5,6,7,7a-Hexahydrobenzofuran-7a-yl 4-Nitrobenzoate], the “TC50 (Antiviral activity against H3N2 virus section)” value in the data set on MDCK cells amounted to 216.0 µM. In addition, the pIC50 in the data set on HSV-1 virus was under 4.94; in the data set with influenza virus H3N2 it was under 4.41. In addition, the “TC50 (Antiviral activity against HSV-1 virus section)” value in the data set on Vero cells (setting [1]) worked out at 216.0 µM.

In the case of `CC1=C2CC[C@@H](C)C[C@]2(OC(=O)c2ccc(I)cc2)OC1=O` [M10, (6R,7aS)-3,6-Dimethyl-2-Oxo-2,4,5,6,7,7a-Hexahydrobenzofuran-7a-yl 4-Iodobenzoate], the “TC50 (Antiviral activity against H3N2 virus section)” value in the data set with MDCK cells came to 41.3 µM. The pIC50 in the data set with HSV-1 virus was under 4.94. Further, in the data set with influenza virus H3N2, the pIC50 is under 4.41 and the “antiviral activity against influenza virus H3N2 (in words)” value was “little effect”. Also, the “TC50 (Antiviral activity against HSV-1 virus section)” value with Vero cells (setting [1]) stood at 44.2 µM.

Regarding `CC1=C2CC[C@@H](C)C[C@]2(OC(=O)c2ccc(Cl)cc2)OC1=O` [M11, (6R,7aS)-3,6-Dimethyl-2-Oxo-2,4,5,6,7,7a-Hexahydrobenzofuran-7a-yl 4-Chlorobenzoate], in the data set on MDCK cells, the “TC50 (Antiviral activity against H3N2 virus section)” value stood at 47.1 µM. Besides, the pIC50 in the data set with HSV-1 virus was under 4.94. In the data set on influenza virus H3N2, the pIC50 was under 4.41 and the “antiviral activity against influenza virus H3N2 (in words)” value is recorded as “little effect”. For the same compound, the “TC50 (Antiviral activity against HSV-1 virus section)” value with Vero cells (setting [1]) turned out to be 47.1 µM.

Turning to `CC1=C2CC[C@@H](C)C[C@@]2(OC(=O)c2cccnc2)OC1=O` [M21, (6R,7aS)-3,6-Dimethyl-2-Oxo-2,4,5,6,7,7a-Hexahydrobenzofuran-7a-yl Nicotinate], the “TC50 (Antiviral activity against H3N2 virus section)” value in the data set on MDCK cells was found to be 180.5 µM. Moreover, the pIC50 in the data set with HSV-1 virus was under 4.94; with influenza virus H3N2, under 4.41. For the same compound, the “TC50 (Antiviral activity against HSV-1 virus section)” value in the data set on Vero cells (setting [1]) was 439.0 µM.

On to `CC1=C2CC[C@@H](C)C[C@]2(OC(=O)c2ccc(F)cc2)OC1=O` [M22, (6R,7aS)-3,6-Dimethyl-2-Oxo-2,4,5,6,7,7a-Hexahydrobenzofuran-7a-yl 4-Fluorobenzoate], for which the “TC50 (Antiviral activity against H3N2 virus section)” value with MDCK cells came out at 60.5 µM. Moreover, the pIC50 with HSV-1 virus is under 4.94. Moreover, in the data set with influenza virus H3N2, the negative logarithm of the IC50 (pIC50) is under 4.41 and the “antiviral activity against influenza virus H3N2 (in words)” value was “little effect”. In addition, the “TC50 (Antiviral activity against HSV-1 virus section)” value in the data set with Vero cells (setting [1]) was determined as 87.8 µM.

In the case of `CC1=C2CC[C@@H](C)C[C@]2(OC(=O)c2cccc(Cl)c2)OC1=O` [M25, (6R,7aS)-3,6-Dimethyl-2-Oxo-2,4,5,6,7,7a-Hexahydrobenzofuran-7a-yl 3-Chlorobenzoate], the “TC50 (Antiviral activity against H3N2 virus section)” value in the data set on MDCK cells is 80.8 µM. Moreover, the figures for the negative logarithm of the IC50 (pIC50) in the data set with HSV-1 virus and with influenza virus H3N2 were under 4.94 and under 4.41, respectively. Further, the “antiviral activity against influenza virus H3N2 (in words)” value with influenza virus H3N2 is listed as “little effect”. Further, in the data set on Vero cells (setting [1]), the “TC50 (Antiviral activity against HSV-1 virus section)” value is 11.5 µM.

Take `CC1=C2CC[C@@H](C)C[C@@]2(OC(=O)c2cccs2)OC1=O` [M27, (6R,7aS)-3,6-Dimethyl-2-Oxo-2,4,5,6,7,7a-Hexahydrobenzofuran-7a-yl Thiophene-2-Carboxylate]: in the data set on MDCK cells, the “TC50 (Antiviral activity against H3N2 virus section)” value amounted to 177.4 µM. Moreover, the pIC50 in the data set on HSV-1 virus is under 4.94; with influenza virus H3N2 it was under 4.41. The “TC50 (Antiviral activity against HSV-1 virus section)” value with Vero cells (setting [1]) worked out at 100.3 µM.

For the compound `CC1=C2CC[C@@H](C)C[C@]2(OC(=O)c2cccc(F)c2)OC1=O` [M28, (6R,7aS)-3,6-Dimethyl-2-Oxo-2,4,5,6,7,7a-Hexahydrobenzofuran-7a-yl 3-Fluorobenzoate], the “TC50 (Antiviral activity against H3N2 virus section)” value in the data set on MDCK cells was 96.4 µM. The pIC50 in the data set on HSV-1 virus is under 4.94. In addition, in the data set on influenza virus H3N2, the pIC50 was 4.46 and the “antiviral activity against influenza virus H3N2 (in words)” value is given as “high antiviral activity”. Moreover, in the data set with influenza virus H3N2 (TI = TC50/IC50), the “TI (TC50/IC50), H3N2 virus” value is reported as 2.8. Further, the “TC50 (Antiviral activity against HSV-1 virus section)” value in the data set on Vero cells (setting [1]) worked out at 170.4 µM.

In the case of `CC1=C2CC[C@@H](C)C[C@]2(OC(=O)c2cccc(I)c2)OC1=O` [M29, (6R,7aS)-3,6-Dimethyl-2-oxo-2,4,5,6,7,7a-Hexahydrobenzofuran-7a-yl 3-Iodobenzoate], the “TC50 (Antiviral activity against H3N2 virus section)” value with MDCK cells is 71.1 µM. In addition, the pIC50 with HSV-1 virus is under 4.94. Moreover, in the data set on influenza virus H3N2, the pIC50 was under 4.41 and the “antiviral activity against influenza virus H3N2 (in words)” value was “little effect”. In the data set with Vero cells (setting [1]), the “TC50 (Antiviral activity against HSV-1 virus section)” value came to 45.4 µM.

On to `NC(=O)c1ncn([C@@H]2O[C@H](CO)[C@@H](O)[C@H]2O)n1` [Ribavirin, reference compound], for which the pIC50 in the data set with influenza virus H3N2 is 2.99.
